Data from patent US20250289827A1, “MORPHIC FORMS OF A MUTANT BRAF DEGRADER AND METHODS OF MANUFACTURE THEREOF” (C4 THERAPEUTICS, INC., priority 2022, published 2025).

Key:
Format in all cases: physicochemical
[1] = Equilibration under a temperature cycle (XRPD)
Experimental: The equilibration was executed with a stirring bar on a magnetic stirring plate at a rate of 300 rpm. The obtained suspensions were filtered through a 0.45 µm nylon membrane filter by centrifugation at 14,000 rpm. Solid parts (wet cakes) were investigated by XRPD.

[2] = Crystallization at room temperature by slow evaporation
Experimental: About 30 mg of Compound 1 Form A was dissolved in 0.2-10 mL of solvents. Obtained solutions were filtered through a 0.45 μm syringe membrane filter. […] Solid residues were investigated by XRPD.

[3] = Salt screening by anti-solvent addition; conditions: Choline; MeOH/0.2 mL, anti-solvent MTBE/0.3 mL
[4] = Equilibration with solvents at 25° C. for 4 weeks (XRPD)
Experimental: About 50 mg of Compound 1 free Form A was equilibrated in 0.1-1 mL of solvents at 25° C. for 4 weeks with a stirring bar on a magnetic stirring plate at a rate of 300 rpm. The obtained suspensions were filtered through a 0.45 μm nylon membrane filter by centrifugation at 14,000 rpm. Solid parts (wet cakes) were investigated by XRPD.

[5] = Crystallization by heat-cool DSC; conditions: for Thermal events: Melting Tonset / Thermal events: enthalpy: heated to 185° C.; for Thermal events: Delta Cp / Thermal events: Tg: reheated to 250° C.
From the text: Polymorphic behavior of Compound 1 Form A was investigated by two different heat-cool DSC cycles. A Tzero pan and a Tzero hermetic lid with a pin hole were used for this experiment. No new crystalline form was obtained by heat-cool DSC.

[6] = Acetone, temperature cycle 5° C. to 40° C.
[7] = Acetonitrile, temperature cycle 5° C. to 40° C.
[8] = DMF, temperature cycle 5° C. to 40° C.
[9] = Ethyl acetate, temperature cycle 5° C. to 40° C.
[10] = Isopropanol, temperature cycle 5° C. to 40° C.
[11] = Isopropyl acetate, temperature cycle 5° C. to 40° C.
[12] = Methanol, temperature cycle 5° C. to 40° C.
[13] = THF/heptane (v:v = 1:1), temperature cycle 5° C. to 40° C.
[14] = Toluene, temperature cycle 5° C. to 40° C.
[15] = temperature cycle, Acetone/water (v:v = 86:14) a.w. = 0.6
[16] = temperature cycle, Acetonitrile/water (v:v = 96:4) a.w. = 0.65
[17] = temperature cycle, DCM/methanol (v:v = 1:1)
[18] = temperature cycle, DMF/water (v:v = 30:70) a.w. = 0.9
[19] = temperature cycle, DMF/water (v:v = 73:27) a.w. = 0.6
[20] = temperature cycle, DMSO/water (v:v = 23:77) a.w. = 0.9
[21] = temperature cycle, DMSO/water (v:v = 57:43) a.w. = 0.6
[22] = temperature cycle, Methanol/water (v:v = 69:31) a.w. = 0.6
[23] = temperature cycle, THF/water (v:v = 82:18) a.w. = 0.9
[24] = temperature cycle, THF/water (v:v = 92:8) a.w. = 0.6
[25] = Acetone/water (v:v = 86:14) a.w. = 0.6
[26] = Acetonitrile/water (v:v = 96:4) a.w. = 0.6
[27] = DMF/water (v:v = 73:27) a.w. = 0.6
[28] = Methanol/water (v:v = 69:31) a.w. = 0.6
[29] = THF/water (v:v = 82:18) a.w. = 0.9
[30] = THF/water (v:v = 92:8) a.w. = 0.6
[31] = Cycle 1 (cooling at 20° C./min)

CCN(C)S(=O)(=O)Nc1ccc(F)c(Oc2ccc3ncn([C@H]4COC5(CCN(C(=O)CC6(O)CCN(c7cc8c(cc7F)c(N7CCC(=O)NC7=O)nn8C)CC6)CC5)C4)c(=O)c3c2)c1C#N [Compound 1 Form A]
~17 J/g: Thermal events: enthalpy ([5]; Cycle 2 (cooling at 2° C./min))
Delta Cp 0.2 J(g. ° C.): Thermal events: Delta Cp ([5]; Cycle 2 (cooling at 2° C./min))
Low crystallinity: Comments [1, 6] | Comments [1, 9] | Comments [1, 10] | Comments [1, 11] | Comments [1, 12] | Comments [1, 13] | Comments [1, 14] | Comments [1, 18] | Comments [1, 20] | Comments [1, 21] | Comments [1, 22] | Comments ([4]; Ethanol) | Comments ([4]; Isopropanol) | Comments ([4]; Isopropyl acetate) | Comments ([4]; MTBE) | Comments ([4]; Methanol) | Comments [4, 28] | Comments ([4]; Toluene)
Form C*: XRPD (solid form after equilibration) ([4]; Ethyl acetate)
Form C (about 20: XRPD (solid form after equilibration) ([1]; 2-MeTHF, temperature cycle 5° C. to 40° C., about 20 cycles)
Medium: Comments (crystallinity) [1, 7] | Comments (crystallinity) [4, 26]
(About 500 mg/mL): Comments: concentration of clear solution [1, 8] | Comments: concentration of clear solution [1, 15] | Comments: concentration of clear solution [1, 17] | Comments: concentration of clear solution [1, 23] | Comments: concentration of clear solution [1, 24]
Form C: XRPD (solid form after equilibration) ([4]; 2-MeTHF)
Form C converted: Comments ([1]; 2-MeTHF, temperature cycle 5° C. to 40° C., after about 8 more cycles)
Tonset 167.7° C., enthalpy about: Thermal events: Melting Tonset [5, 31] | Thermal events: Melting Tonset ([5]; Cycle 2 (cooling at 2° C./min))
Medium crystallinity: Comments [1, 16] | Comments [1, 19] | Comments ([4]; 2-MeTHF) | Comments ([4]; Acetone) | Comments ([4]; Acetonitrile) | Comments ([4]; Ethyl acetate) | Comments ([4]; Methyl ethyl ketone) | Comments ([4]; THF/heptane (v:v = 1:1))
Heated to 250° C.: Tg 149.8° C.,: Thermal events: Tg [5, 31]
~16 J/g: Thermal events: enthalpy [5, 31]
Almost amorphous form: XRPD ([2]; DCM) | XRPD ([2]; DCM/methanol (v:v = 1:1)) | XRPD ([2]; Methanol)
Clear solution: Comments [1, 8] | Comments [1, 15] | Comments [1, 17] | Comments [1, 23] | Comments [1, 24] | Comments [4, 25] | Comments ([4]; DCM/methanol (v:v = 1:1)) | Comments ([4]; DMF) | Comments [4, 27] | Comments [4, 29] | Comments [4, 30]
Form B**: XRPD [1, 16]
Form A: XRPD (solid form after equilibration) [1, 10] | XRPD (solid form after equilibration) [1, 11] | XRPD (solid form after equilibration) [1, 14] | XRPD [1, 20] | XRPD [1, 21] | XRPD (solid form after equilibration) ([4]; Ethanol) | XRPD (solid form after equilibration) ([4]; Isopropanol) | XRPD (solid form after equilibration) ([4]; Isopropyl acetate) | XRPD (solid form after equilibration) ([4]; MTBE) | XRPD (solid form after equilibration) ([4]; Toluene)
Glassy material: Comments ([2]; 1,4-Dioxane) | Comments ([2]; Acetone) | Comments ([2]; Methyl ethyl ketone) | Comments ([2]; THF)
Sticky material: Comments ([1]; 1,4-Dioxane/heptane (v:v = 1:1), temperature cycle 5° C. to 40° C.) | Comments ([1]; DCM/heptane (v:v = 1:1), temperature cycle 5° C. to 40° C.) | Comments ([1]; temperature cycle, Acetone/water (v:v = 36:64) a.w. = 0.9) | Comments ([1]; temperature cycle, Acetonitrile/water (v:v = 42:58) a.w. = 0.9) | Notes [3] | Comments ([4]; 1,4-Dioxane/heptane (v:v = 1:1)) | Comments ([4]; Acetonitrile/water (v:v = 42:58) a.w. = 0.9) | Comments ([4]; DCM/heptane (v:v = 1:1))
Form B: XRPD (solid form after equilibration) [1, 6] | XRPD (solid form after equilibration) [1, 7] | XRPD (solid form after equilibration) [1, 9] | XRPD (solid form after equilibration) [1, 12] | XRPD (solid form after equilibration) [1, 13] | XRPD [1, 18] | XRPD [1, 19] | XRPD [1, 22] | XRPD (solid form after equilibration) ([4]; Acetone) | XRPD (solid form after equilibration) ([4]; Acetonitrile) | XRPD (solid form after equilibration) [4, 26] | XRPD (solid form after equilibration) ([4]; Methanol) | XRPD (solid form after equilibration) [4, 28] | XRPD (solid form after equilibration) ([4]; Methyl ethyl ketone) | XRPD (solid form after equilibration) ([4]; THF/heptane (v:v = 1:1))
(about 500 mg/mL): Comments: concentration of clear solution [4, 25] | Comments: concentration of clear solution ([4]; DCM/methanol (v:v = 1:1)) | Comments: concentration of clear solution ([4]; DMF) | Comments: concentration of clear solution [4, 27] | Comments: concentration of clear solution [4, 29] | Comments: concentration of clear solution [4, 30]
Delta Cp 0.3 J(g. ° C.): Thermal events: Delta Cp [5, 31]
Almost amorphous: XRPD (solid form after equilibration) ([1]; Ethanol, temperature cycle 5° C. to 40° C.) | XRPD (solid form after equilibration) ([1]; MTBE, temperature cycle 5° C. to 40° C.) | XRPD (solid form after equilibration) ([1]; Methyl ethyl ketone, temperature cycle 5° C. to 40° C.) | XRPD (solid form after equilibration) ([4]; Acetone/water (v:v = 36:64) a.w. = 0.9) | XRPD (solid form after equilibration) ([4]; DMF/water (v:v = 30:70) a.w. = 0.9) | XRPD (solid form after equilibration) ([4]; DMSO/water (v:v = 23:77) a.w. = 0.9) | XRPD (solid form after equilibration) ([4]; DMSO/water (v:v = 57:43) a.w. = 0.6) | XRPD (solid form after equilibration) ([4]; Methanol/water (v:v = 22:78) a.w. = 0.9)
Heated to 250° C.: Tg 145.9° C.,: Thermal events: Tg ([5]; Cycle 2 (cooling at 2° C./min))
Amorphous form: XRPD ([2]; Acetonitrile) | XRPD ([2]; Ethyl acetate)
